The first assay deals with T1, human ERK-2 (Mitogen Activated Kinase 1) (Homo sapiens, UniProt P28482).
T1 construct: n-terminal 6-His fusion protein in E. coli and corresponding to aa 8-360; 6-His (N); made in house; host or cells: E. coli
T1 sequence (P28482 8-360): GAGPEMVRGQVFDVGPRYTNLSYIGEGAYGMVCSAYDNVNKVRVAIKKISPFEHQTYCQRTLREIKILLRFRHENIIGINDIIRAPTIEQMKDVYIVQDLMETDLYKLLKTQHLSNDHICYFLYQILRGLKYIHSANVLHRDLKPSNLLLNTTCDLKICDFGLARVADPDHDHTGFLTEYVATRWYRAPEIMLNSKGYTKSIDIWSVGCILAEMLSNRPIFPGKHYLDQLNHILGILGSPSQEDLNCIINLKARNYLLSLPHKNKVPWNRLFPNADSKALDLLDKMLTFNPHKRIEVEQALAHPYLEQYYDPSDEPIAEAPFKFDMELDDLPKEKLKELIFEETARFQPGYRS
Briefly: ERK-2 Enzymatic Assay. Type of assay: biochemical. To be noted: 5 nM ERK-2 enzyme, 25 μM ATP (observed Km), Omnia peptide S/T17; single assay or mean of multiple assays; read-out: Biological Example 1 IC50. From the text:
Table 1 contains representative data for Examples disclosed herein.
Regarding `COc1ncc(F)cc1N1CC[C@H](n2nnc3cc(-c4ccnc(Nc5ccnn5C)n4)ccc32)C1` [Example 81, (S)-4-(1-(1-(5-fluoro-2-methoxypyridin-3-yl)pyrrolidin-3-yl)-1H-benzo[d][1,2,3]triazol-5-yl)-N-(1-methyl-1H-pyrazol-5-yl)pyrimidin-2-amine], the IC50 was determined as 511 nM.

Staying with this assay, now noted: ERK-2 enzymatic assay; read-out: IC50.
Consider `CCOCC1(Cn2nnc3cc(-c4ccnc(Nc5ccnn5C)n4)ccc32)CC1` [Example 45, 4-(1-((1-(ethoxymethyl)cyclopropyl)methyl)-1H-benzo[d][1,2,3]triazol-5-yl)-N-(1-methyl-1H-pyrazol-5-yl)pyrimidin-2-amine], for which the IC50 is less than 100 nM. Still for that read-out and setting: in the case of `COCC(C)(C)Cn1nnc2cc(-c3ccnc(Nc4ccnn4C)n3)ccc21` [Example 46, 4-(1-(3-methoxy-2,2-dimethylpropyl)-1H-benzo[d][1,2,3]triazol-5-yl)-N-(1-methyl-1H-pyrazol-5-yl)pyrimidin-2-amine] it was less than 100 nM; in that of `Cn1nccc1Nc1nccc(-c2ccc3c(c2)nnn3CC2(c3ccc(OC(F)(F)F)cc3)CC2)n1` [Example 47, N-(1-methyl-1H-pyrazol-5-yl)-4-(1-((1-(4-(trifluoromethoxy)phenyl)cyclopropyl)methyl)-1H-benzo[d][1,2,3]triazol-5-yl)pyrimidin-2-amine], less than 100 nM; in that of `Cn1nccc1Nc1nccc(-c2ccc3c(c2)nnn3CC2(C)CCC2)n1` [Example 48, N-(1-methyl-1H-pyrazol-5-yl)-4-(1-((1-methylcyclobutyl)methyl)-1H-benzo[d][1,2,3]triazol-5-yl)pyrimidin-2-amine], less than 100 nM. Take `Cn1nccc1Nc1nccc(-c2ccc3c(c2)nnn3CCc2ccccc2Cl)n1` [Example 49, 4-(1-(2-chlorophenethyl)-1H-benzo-[d][1,2,3]triazol-5-yl)-N-(1-methyl-1H-pyrazol-5-yl)pyrimidin-2-amine]: the concentration for half-maximal inhibition (IC50) was less than 100 nM. On the same count and under the same terms, with `Cn1nccc1Nc1nccc(-c2ccc3c(c2)nnn3CCc2cccc(Cl)c2)n1` [Example 50, 4-(1-(3-chlorophenethyl)-1H-benzo[d][1,2,3]triazol-5-yl)-N-(1-methyl-1H-pyrazol-5-yl)pyrimidin-2-amine] the figure was less than 100 nM; with `Cn1nccc1Nc1nccc(-c2ccc3c(c2)nnn3Cc2ccc(OC(F)F)cc2)n1` [Example 51, 4-(1-(4-(difluoromethoxy)benzyl)-1H-benzo[d][1,2,3]triazol-5-yl)-N-(1-methyl-1H-pyrazol-5-yl)pyrimidin-2-amine], less than 100 nM. Still for that read-out and setting: in the case of `Cn1nccc1Nc1nccc(-c2ccc3c(c2)nnn3Cc2cccc(C(F)(F)F)n2)n1` [Example 52, N-(1-methyl-1H-pyrazol-5-yl)-4-(1-((6-(trifluoromethyl)pyridin-2-yl)methyl)-1H-benzo[d][1,2,3]triazol-5-yl)pyrimidin-2-amine] it was less than 100 nM. For `Cc1ncccc1Cn1nnc2cc(-c3ccnc(Nc4ccnn4C)n3)ccc21` [Example 53, N-(1-methyl-1H-pyrazol-5-yl)-4-(1-((2-methylpyridin-3-yl)methyl)-1H-benzo[d][1,2,3]triazol-5-yl)pyrimidin-2-amine], the 50% inhibitory concentration (IC50) is less than 100 nM. On to `COc1ncccc1Cn1nnc2cc(-c3ccnc(Nc4ccnn4C)c3)ccc21` [Example 54, 4-(1-((2-methoxypyridin-3-yl)methyl)-1H-benzo[d][1,2,3]triazol-5-yl)-N-(1-methyl-1H-pyrazol-5-yl)pyridin-2-amine], for which the concentration for half-maximal inhibition (IC50) was less than 100 nM. With `Cc1ccc(Cn2nnc3cc(-c4ccnc(Nc5ccnn5C)n4)ccc32)cn1` [Example 57, N-(1-methyl-1H-pyrazol-5-yl)-4-(1-((6-methylpyridin-3-yl)methyl)-1H-benzo[d][1,2,3]triazol-5-yl)pyrimidin-2-amine], the IC50 is less than 100 nM. Still for that read-out and setting: with `Cn1nccc1Nc1nccc(-c2ccc3c(c2)nnn3C2CCc3cc(Cl)ccc32)n1` (stereo not shown) [Example 59, 4-(1-(5-chloro-2,3-dihydro-1H-inden-1-yl)-1H-benzo[d][1,2,3]triazol-5-yl)-N-(1-methyl-1H-pyrazol-5-yl)pyrimidin-2-amine] the figure was less than 100 nM. On the same count and under the same terms, in the case of `Cn1nccc1Nc1nccc(-c2ccc3c(c2)nnn3CC(C)(C)O)n1` [Example 60, 2-methyl-1-(5-(2-((1-methyl-1H-pyrazol-5-yl)amino)pyrimidin-4-yl)-1H-benzo[d][1,2,3]triazol-1-yl)propan-2-ol] it was less than 100 nM; in that of `Cn1nccc1Nc1nccc(-c2ccc3c(c2)nnn3CC2CN(C(=O)OC(C)(C)C)C2)n1` [Example 63, tert-butyl 3-((5-(2-((1-methyl-1H-pyrazol-5-yl)amino)pyrimidin-4-yl)-1H-benzo[d][1,2,3]triazol-1-yl)methyl)azetidine-1-carboxylate], less than 100 nM; in that of `Cn1nccc1Nc1nccc(-c2ccc3c(c2)nnn3CC2CN(CC(F)(F)F)C2)n1` [Example 64, N-(1-methyl-1H-pyrazol-5-yl)-4-(1-((1-(2,2,2-trifluoroethyl)azetidin-3-yl)methyl)-1H-benzo[d][1,2,3]triazol-5-yl)pyrimidin-2-amine], less than 100 nM.

`COc1ccc(Cn2nnc3cc(-c4ccnc(Nc5ccnn5C)n4)ccc32)cc1` [Example 65, 4-(1-(4-methoxybenzyl)-1H-benzo[d][1,2,3]triazol-5-yl)-N-(1-methyl-1H-pyrazol-5-yl)pyrimidin-2-amine]: the concentration for half-maximal inhibition (IC50) was less than 100 nM. As to `Cn1nccc1Nc1nccc(-c2ccc3c(c2)nnn3Cc2cccnc2Cl)n1` [Example 66, 4-(1-((2-chloropyridin-3-yl)methyl)-1H-benzo[d][1,2,3]triazol-5-yl)-N-(1-methyl-1H-pyrazol-5-yl)pyrimidin-2-amine], the IC50 is less than 100 nM. Same read-out and setting: with `COc1ncccc1Cn1nnc2cc(-c3ccnc(Nc4ccnn4C)n3)ccc21` [Example 67, 4-(1-((2-methoxypyridin-3-yl)methyl)-1H-benzo[d][1,2,3]triazol-5-yl)-N-(1-methyl-1H-pyrazol-5-yl)pyrimidin-2-amine] the figure was less than 100 nM; with `COc1cccnc1Cn1nnc2cc(-c3ccnc(Nc4ccnn4C)n3)ccc21` [Example 68, 4-(1-((3-methoxypyridin-2-yl)methyl)-1H-benzo[d][1,2,3]triazol-5-yl)-N-(1-methyl-1H-pyrazol-5-yl)pyrimidin-2-amine], less than 100 nM. The same measure, in the same setting: with `Cn1nccc1Nc1nccc(-c2ccc3c(c2)nnn3Cc2ncc(F)cc2F)n1` [Example 69, 4-(1-((3,5-difluoropyridin-2-yl)methyl)-1H-benzo[d][1,2,3]triazol-5-yl)-N-(1-methyl-1H-pyrazol-5-yl)pyrimidin-2-amine] the figure was less than 100 nM; with `COc1ccc([C@@H](c2cnnn2C)n2nnc3cc(-c4ccnc(Nc5ccnn5C)n4)ccc32)cc1F` [Example 71, (S)-4-(l-((3-fluoro-4-methoxyphenyl)(1-methyl-1H-1,2,3-triazol-5-yl)methyl)-1H-benzo[d][1,2,3]triazol-5-yl)-N-(1-methyl-1H-pyrazol-5-yl)pyrimidin-2-amine], less than 100 nM. Same read-out and setting: in the case of `CN1CC(n2nnc3cc(-c4ccnc(Nc5cnn(C)c5)n4)ccc32)[C@H](c2ccc(F)cc2F)C1` (stereo partly drawn) [Example 73, 4-(1-((3S,4R)-4-(2,4-difluorophenyl)-1-methylpyrrolidin-3-yl)-1H-benzo[d][1,2,3]triazol-5-yl)-N(1-methyl-1H-pyrazol-4-yl)pyrimidin-2-amine] it was less than 100 nM; in that of `CN1C[C@@H](n2nnc3cc(-c4ccnc(Nc5ccnn5C)n4)ccc32)[C@H](c2ccc(F)cc2F)C1` [Example 74, 4-(1-((3S,4R)-4-(2,4-difluorophenyl)-1-methylpyrrolidin-3-yl)-1H-benzo[d][1,2,3]triazol-5-yl)-N-(1-methyl-1H-pyrazol-5-yl)pyrimidin-2-amine], less than 100 nM. `CN1C[C@@H](n2nnc3cc(-c4ccnc(Nc5ccnn5C)n4)ccc32)[C@H](c2ccc(F)c(F)c2)C1` [Example 75, 4-(1-((3S,4R)-4-(3,4-difluorophenyl)-1-methylpyrrolidin-3-yl)-1H-benzo[d][1,2,3]triazol-5-yl)-N-(1-methyl-1H-pyrazol-5-yl)pyrimidin-2-amine]: the 50% inhibitory concentration (IC50) was less than 100 nM. Still for that read-out and setting: in the case of `CN1C[C@@H](n2nnc3cc(-c4ccnc(Nc5ccnn5C)n4)ccc32)[C@H](c2cc(F)cc(F)c2)C1` [Example 76, 4-(1-((3S,4R)-4-(3,5-difluorophenyl)-1-methylpyrrolidin-3-yl)-1H-benzo[d][1,2,3]triazol-5-yl)-N-(1-methyl-1H-pyrazol-5-yl)pyrimidin-2-amine] it was less than 100 nM; in that of `CCN1C[C@@H](n2nnc3cc(-c4ccnc(Nc5ccnn5C)n4)ccc32)[C@H](c2ccc(F)c(F)c2)C1` [Example 77, 4-(1-((3S,4R)-4-(3,4-difluorophenyl)-1-ethylpyrrolidin-3-yl)-1H-benzo[d][1,2,3]triazol-5-yl)-N-(1-methyl-1H-pyrazol-5-yl)pyrimidin-2-amine], less than 100 nM. The same measure, in the same setting: in the case of `Cn1nccc1Nc1nccc(-c2ccc3c(c2)nnn3[C@@H]2CNC[C@H]2c2ccc(F)c(F)c2)n1` [Example 78, 4-(1-((3S,4R)-4-(3,4-difluorophenyl)pyrrolidin-3-yl)-1H-benzo[d][1,2,3]triazol-5-yl)-N-(1-methyl-1H-pyrazol-5-yl)pyrimidin-2-amine] it was less than 100 nM; in that of `Cn1nccc1Nc1nccc(-c2ccc3c(c2)nnn3[C@H]2CNCC(F)(F)C2)n1` [Example 79, (R)-4-(1-(5,5-difluoropiperidin-3-yl)-1H-benzo[d][1,2,3]triazol-5-yl)-N-(1-methyl-1H-pyrazol-5-yl)pyrimidin-2-amine], less than 100 nM; in that of `CC(C)N1CC(n2nnc3cc(-c4ccnc(Nc5ccnn5C)n4)ccc32)[C@H](c2cc(F)cc(F)c2)C1` (stereo partly shown) [Example 80], less than 100 nM. With `Cc1cc(-n2nnc3cc(-c4ccnc(Nc5ccnn5C)n4)ccc32)n(-c2ccccn2)n1` [Example 82, 4-(1-(3-methyl-1-(pyridin-2-yl)-1H-pyrazol-5-yl)-1H-benzo[d][1,2,3]triazol-5-yl)-N-(1-methyl-1H-pyrazol-5-yl)pyrimidin-2-amine], the concentration for half-maximal inhibition (IC50) was less than 100 nM.

For the origin of these results see patent US9763942B2, “Serine/threonine kinase inhibitors” (Array BioPharma Inc., priority 2013, dated 2017).
